# In patent US20100003217A1, “Compounds and Pharmaceutical Compositions for the Treatment of Viral Infections” (priority 2008, published 2010):
# Assays:
# [1] = Excretion of administered dose in rat urine and feces; assay type: in vivo, male Sprague-Dawley rats; settings: IV; 24 h after [14C]Compound 1
# [2] = as above; assay type: in vivo, male Sprague-Dawley rats; settings: for Percent of Dose, Total (urine, feces and liver): Oral, 24 h after [14C]Compound 1
# Experimental: Isotopically diluted [^14C]-Compound 1 was administered intravenously to male Sprague-Dawley rats at 50 mg/kg or by oral gavage at 100 mg/kg.
# Percent of the administered dose (% AD) for parent drug and each metabolite at each collection period=(% of the total radioactivity in the sample attributed to the metabolite)*(total radioactivity expressed as % of the administered dose, recovered during the corresponding collection period).
# The urine and feces of each animal were analyzed for radiolabel content.
# [3] = Metabolite profiling in monkey liver microsomes; assay type: in vitro ADME; parameters: key: +: peak detected; ?: peak observed; ND: not detected; settings: 50 μM Compound 1, 2 hours
# Experimental: Preliminary identification of putative metabolites was conducted by comparing the retention time of observed metabolites with retention times obtained with chemically synthesized standards using the following HPLC-UV method:
# Incubations with liver microsomes, liver cytosol or pig liver esterase were conducted in a final volume of 0.1 mL per incubation time point. Pooled microsomal protein (1.0 mg/mL) suspended in incubation buffer (0.1 M potassium phosphate, pH 7.4) was incubated for 2 hours at 37° C. with 50 μM Compound 1 from a stock solution in DMSO (final DMSO concentration was 0.1%); the microsomal reaction was initiated by the addition of an NADPH regenerating system (1.3 mM NADP^+, 3.3 mM glucose-6-phosphate, 0.4 U/ml glucose-6-phosphate dehydrogenase, and 3.3 mM MgCl2, final concentrations). Incubations with no NADPH or no protein served as controls. Reactions were terminated by the addition of 0.1 mL of stop solution (acetonitrile). The samples were vortex-mixed for 30 sec and then centrifuged at 10,000×g for 10 min. The supernatant was dried using a Labconco CentriVap concentrator and the dry residue reconstituted in water, transferred to an HPLC glass vial and analyzed by HPLC-UV method 2 (described above).
# Results: Preliminary identification was accomplished by comparing LC elution of metabolites with that of available synthetic standards of putative metabolites (FIG. 2). Metabolites U1, U2 and U3 were characterized based on the retention times.
# [4] = Stability in monkey liver microsomes; assay type: in vitro ADME; settings: for % Residual Compound 2 / % Residual Compound 1: monkey liver microsomes 1 mg/mL; for % Residual Compound 2: 15 min; for NADPH-dependent metabolism: monkey liver microsomes; for % Residual compound following incubation with liver microsomes: monkey microsomes 1 mg/mL
# Experimental: (§1) Disappearance of parent Compound 1 was used to evaluate the in vitro metabolism thereof. Relative levels of unchanged Compound 1 were measured by HPLC-UV method 1. Residual Compound 1 is reported as percent difference from time zero or control. The HPLC-UV system was as follows:
# Incubations with liver microsomes or cytosol were conducted in a final volume of 0.1 mL per incubation time point. […] DMSO (final DMSO concentration was 0.1%) was incubated at 37° C. from 0-60 min with pooled microsomal protein (1.0 mg/mL), suspended in incubation buffer (0.1 M potassium phosphate, pH 7.4, 5 mM MgCl2, and 0.1 mM EDTA). The microsomal reaction was initiated by the addition of NADPH (3 mM final concentration). Incubations with (a) no protein or (b) no NADPH served as controls. Reactions were terminated by the addition of 0.2 mL of stop solution (acetonitrile). The samples were vortex-mixed for 30 sec and then centrifuged at 10,000×g for 10 min. The supernatant was dried using a Labconco CentriVap concentrator and the dry residue reconstituted in water, transferred to an HPLC glass vial and analyzed by HPLC-UV method 1 (described above).
# (§2) Metabolic stability of the proposed metabolites was conducted by incubating the chemically synthesized standards Compound 2, Compound 4 and Compound 3 as described above for Compound 1. When possible, formation of Compound 5 was verified by incubating samples with alkaline phosphatase (10 U) for 60 min at 37° C.
# [5] = Incubation with human liver cytosol; assay type: in vitro ADME; settings: human cytosol 1 mg/mL, 2 hours, 10 μM
# Experimental: Pooled liver cytosol (1.0 mg protein/mL) suspended in incubation buffer (0.1 M potassium phosphate, pH 7.4) was incubated for 2 hours at 37° C. with 10 μM Compound 1 from a stock solution in DMSO (final DMSO concentration was 0.1%); reaction was initiated with the addition of test article. Incubations with no protein served as control. Reactions were terminated by the addition of 0.1 mL of stop solution (acetonitrile). The samples were vortex-mixed for 30 sec and then centrifuged at 10,000×g for 10 min. The supernatant was dried using a Labconco CentriVap concentrator and the dry residue reconstituted in water, transferred to an HPLC glass vial and analyzed by HPLC-UV method 2 (described above).
# as §2
# [6] = Stability in human liver microsomes; assay type: in vitro ADME; settings: for % Residual Compound 2 / % Residual Compound 1: human liver microsomes 1 mg/mL; for % Residual Compound 2: 15 min; for NADPH-dependent metabolism: human liver microsomes; for % Residual compound following incubation with liver microsomes: human microsomes 1 mg/mL
# Experimental: as §1
# Incubations with liver microsomes or cytosol were conducted in a final volume of 0.1 mL per incubation time point. […] The microsomal reaction was initiated by the addition of NADPH (3 mM final concentration). Incubations with (a) no protein or (b) no NADPH served as controls. Reactions were terminated by the addition of 0.2 mL of stop solution (acetonitrile). The samples were vortex-mixed for 30 sec and then centrifuged at 10,000×g for 10 min. The supernatant was dried using a Labconco CentriVap concentrator and the dry residue reconstituted in water, transferred to an HPLC glass vial and analyzed by HPLC-UV method 1 (described above).
# as §2
# [7] = rat, Group 1A: IV 50 mg/kg, termination 2 h
# [8] = rat, Group 1B: IV 50 mg/kg, termination 6 h
# [9] = rat, Group 1C: IV 50 mg/kg, termination 24 h
# [10] = rat, Group 2A: PO 100 mg/kg, termination 2 h
# [11] = rat, Group 2B: PO 100 mg/kg, termination 6 h
# [12] = rat, Group 2C: PO 100 mg/kg, termination 24 h
compound,measurement,setting,value
"C[C@@]1(O)[C@H](O)[C@@H](COP(=O)(O)OP(=O)(O)O)O[C@H]1n1cnc2c(=O)[nH]c(N)nc21 [Compound 6, [(2R)-2-methyl-β-D-ribofuranosyl]guanine 5′-diphosphate]","Percent of Dose, Total (urine, feces and liver)",[1],0.29% of Dose
same,"Percent of Dose, Total (urine, feces and liver)",[2],0.08% of Dose
"C[C@@]1(O)[C@H](O)[C@@H](COP(=O)(O)O)O[C@H]1n1cnc2c(=O)[nH]c(N)nc21 [Compound 5, [(2R)-2-methyl-β-D-ribofuranosyl]guanine 5′-monophosphate]",In vitro metabolite profile in microsomes following incubation with Compound 1 (peak detection),[3],+
same,"Percent of Dose, Total (urine, feces and liver)",[1],1.05% of Dose
"C[C@@]1(O)[C@H](O)[C@@H](COP(=O)(O)NCc2ccccc2)O[C@H]1n1cnc2c(=O)[nH]c(N)nc21 [Compound 2, [(2R)-2-methyl-β-D-ribofuranosyl]guanine-N-benzylaminyl-5′-monophosphate]",% Residual Compound 2,"[4]; 10 μM, NADPH",19%
same,% Residual Compound 2,"[4]; 10 μM, No Cofactor",0%
same,Residual compound following incubation with liver cytosol,[5],0%
same,"Percent of Dose, Total (urine, feces and liver)",[1],0.76% of Dose
same,"Percent of Dose, Total (urine, feces and liver)",[2],0.001% of Dose
same,% Residual Compound 2,"[6]; 10 μM, NADPH",0%
same,% Residual Compound 2,"[6]; 10 μM, No Cofactor",0%
"CC(C)(CO)C(=O)SCCOP(N)(=O)OC[C@H]1O[C@@H](n2cnc3c(=O)[nH]c(N)nc32)[C@](C)(O)[C@@H]1O (mixture of isomers) [Compound 3, {9-[(2R)2-C-methyl-β-D-ribo-furanosyl]-guanin}-5′-yl-O-(hydroxy-tert-butyl-S-acyl-2-thioethyl) phosphoramidate]",NADPH-dependent metabolism,"[4]; 60 min, 50 μM",20-30%
same,% Residual compound following incubation with liver microsomes,"[4]; 60 min, 50 μM, NADPH",76%
same,% Residual compound following incubation with liver microsomes,"[4]; 60 min, 50 μM, No Cofactor",89%
same,Residual compound following incubation with liver cytosol,[5],100%
same,NADPH-dependent metabolism,"[6]; 60 min, 50 μM",20-30%
same,% Residual compound following incubation with liver microsomes,"[6]; 60 min, 50 μM, NADPH",82%
same,% Residual compound following incubation with liver microsomes,"[6]; 60 min, 50 μM, No Cofactor",103%
"CC(C)(CO)C(=O)SCCOP(=O)(NCc1ccccc1)OC[C@H]1O[C@@H](n2cnc3c(=O)[nH]c(N)nc32)[C@](C)(O)[C@@H]1O (mixture of isomers) [Compound 1, 3-hydroxy-2,2-dimethyl-thiopropionic acid S-(2-{[(2R,3R,4R,5R)-5-(2-amino-6-oxo-1,6-dihydro-purin-9-yl)-3,4-dihydroxy-4-methyl-tetrahydro-furan-2-ylmethoxy]-benzylamino-phosphoryloxy}-ethyl) ester]",% Residual Compound 1,"[4]; 10 μM, 0 min, NADPH",100%
same,% Residual Compound 1,"[4]; 10 μM, 0 min, No Cofactor",100%
same,% Residual Compound 1,"[4]; 10 μM, 30 min, NADPH",0%
same,% Residual Compound 1,"[4]; 10 μM, 30 min, No Cofactor",81%
same,% Residual Compound 1,"[4]; 10 μM, 60 min, NADPH",0%
same,NADPH-dependent metabolism,"[4]; NADPH, 30 min, 10 μM",100%
same,Residual compound following incubation with liver cytosol,[5],100%
same,In vitro metabolite profile in microsomes following incubation with Compound 1 (peak detection),[3],+
same,"Percent of Dose, Total (urine, feces and liver)",[1],45.9% of Dose
same,"Total excretion (% AD), total (urine + feces)",[2]; IV (1C),45.9 % AD
same,"Percent of Dose, Total (urine, feces and liver)",[2],65.6% of Dose
same,"Total excretion (% AD), total (urine + feces)","[2]; PO (2C), urine data estimated",65.6 % AD
same,"Total excretion (urine + feces), % of the administered dose","[2]; rat, IV dose",45.9%
same,radioactivity recovered in feces (% of dose),"[2]; rat, IV dose, 24 h",39%
same,radioactivity recovered in urine (% of dose),"[2]; rat, IV dose, 24 h",47%
same,"Total excretion (urine + feces), % of the administered dose","[2]; rat, PO dose",65.6%
same,Fecal Excretion (% AD),[2]; [7],0.05 ± 0.08 % AD
same,Urinary + Fecal Excretion (% AD),[2]; [7],26.0 ± 2.3 % AD
same,Urinary Excretion (% AD),[2]; [7],25.9 ± 2.4 % AD
same,Fecal Excretion (% AD),[2]; [8],0.13 ± 012 % AD
same,Urinary + Fecal Excretion (% AD),[2]; [8],27.8 ± 4.9 % AD
same,Urinary Excretion (% AD),[2]; [8],27.7 ± 4.9 % AD
same,Fecal Excretion (% AD),[2]; [9],39.0 ± 4.0 % AD
same,Urinary + Fecal Excretion (% AD),[2]; [9],86.0 ± 4.8 % AD
same,Urinary Excretion (% AD),[2]; [9],46.9 ± 4.1 % AD
same,Fecal Excretion (% AD),[2]; [10],0.001 ± 0.001 % AD
same,Urinary + Fecal Excretion (% AD),[2]; [10],0.05 ± 0.06 % AD
same,Urinary Excretion (% AD),[2]; [10],0.05 ± 0.06 % AD
same,Fecal Excretion (% AD),[2]; [11],0.006 ± 0.005 % AD
same,Urinary + Fecal Excretion (% AD),[2]; [11],0.36 ± 0.18 % AD
same,Urinary Excretion (% AD),[2]; [11],0.36 ± 0.18 % AD
same,Fecal Excretion (% AD),[2]; [12],91.3 ± 8.7 % AD
same,Urinary + Fecal Excretion (% AD),[2]; [12],94.1 ± 8.9 % AD
same,Urinary Excretion (% AD),[2]; [12],2.84 ± 0.82 % AD
same,% Residual Compound 1,"[6]; 10 μM, 0 min, NADPH",100%
same,% Residual Compound 1,"[6]; 10 μM, 0 min, No Cofactor",100%
same,% Residual Compound 1,"[6]; 10 μM, 30 min, NADPH",52%
same,% Residual Compound 1,"[6]; 10 μM, 30 min, No Cofactor",100%
same,% Residual Compound 1,"[6]; 10 μM, 60 min, NADPH",34%
same,% Residual Compound 1,"[6]; 10 μM, 60 min, No Cofactor",94%
same,NADPH-dependent metabolism,"[6]; NADPH, 60 min, 10 μM",66%
"C[C@@]1(O)[C@H](O)[C@@H](CO)O[C@H]1n1cnc2c(=O)[nH]c(N)nc21 [2′-C-methyl guanosine, 9-(2-C-methyl-β-D-ribofuranosyl)guanine, reference compound]",In vitro metabolite profile in microsomes following incubation with Compound 1 (peak detection),[3],+
same,"Percent of Dose, Total (urine, feces and liver)",[1],34.5% of Dose
same,"Total excretion (% AD), total (urine + feces)",[2]; IV (1C),34.0 % AD
same,"Percent of Dose, Total (urine, feces and liver)",[2],28.3% of Dose
same,"Total excretion (% AD), total (urine + feces)","[2]; PO (2C), urine data estimated",28.2 % AD
same,"Total excretion (urine + feces), % of the administered dose","[2]; rat, IV dose",34.0%
same,"Total excretion (urine + feces), % of the administered dose","[2]; rat, PO dose",28.2%
